Source: patent US20240002437A1, “COMPOSITIONS AND METHODS OF TREATING INFLAMMATORY LUNG DISEASES” (priority 2020, published 2024)

Tests used:
PAEC [1] = assay: Mitochondrial ROS levels (MitoSOX Red) in PAEC; assay type: cell-based, ovine; details: 4αPDD 10 μM, 3 h
Protocol: (§1) Primary cultures of ovine pulmonary arterial endothelial cells (PAEC) were isolated as described previously (L. K. Kelly, Am J Physiol Lung Cell Mol Physiol, 286(5), L984-91 (2004)). Briefly, cells were maintained in Dulbecco's modified Eagle medium (DMEM) supplemented with 10% fetal calf serum (Hyclone, Logan, UT), antibiotics/antimycotic (500 IU Penicillin, 500 μg/ml Streptomycin, 1.25 μg/ml Amphotericin B; MediaTech, Herndon, VA) at 37° C. in a humidified atmosphere with 5% CO2 and 95% air. Cells were used for experiments between passages 9-14, seeded at ˜50% confluence, and utilized when fully confluent.
MitoSOX™ Red (Molecular Probes), a fluorogenic dye for selective detection of ROS levels in the mitochondria of live cells was used. Briefly, cells were washed with fresh media, and then incubated in media containing MitoSOX Red (2 μM), for 30 min at 37° C. in dark conditions then subjected to fluorescence microscopy at an excitation of 510 nm and an emission at 580 nm. An Olympus IX51 microscope equipped with a CCD camera (Hamamatsu Photonics) was used for acquisition of fluorescent images. The average fluorescent intensities (to correct for differences in cell number) were quantified using ImagePro Plus version 5.0 imaging software (Media Cybernetics, Rockville, MD).

PAEC [2] = assay: Mitochondrial bioenergetics (XF24 Analyzer, OCR) in PAEC; assay type: cell-based, ovine; details: 4αPDD
Protocol: as §1
The XF24 Analyzer (Seahorse Biosciences) and XF CELL MITO STRESS™ Test Kit (#101706-100; Seahorse Biosciences) were used for the mitochondrial bioenergetic analyses. The optimum number of cells/well was determined to be 75,000/0.32 cm^2. At the end of each study, the XF24 culture microplates were incubated in a CO2-free XF prep station at 37° C. for 45 min to allow temperature and pH calibration. Subsequently, each well was sequentially injected Oligomycin (1 μM final concentration), carbonyl cyanide 4-(trifluoromethoxy) phenylhydrazone (FCCP, 1 μM final concentration), and Rotenone+antimycin A (1 μM final concentration of each) and measured the oxygen consumption rate (OCR). These agents were used to determine basal mitochondrial respiration, reserve respiratory capacity and maximal respiratory capacity measurements in pmols/min of oxygen consumed.

mouse model of VILI = assay: Mouse model of VILI (high tidal volume ventilation); assay type: in vivo; details: 10 mg/kg intraperitoneally 3 h before ventilation; tidal volume 35 mL/kg, 4 h
Protocol: Male C57BL/6 mice aged between 6 and 8 weeks were purchased from Jackson Laboratories (ME, USA). Mice were maintained at a room temperature of 22±1° C. in air with 40-70% humidity at least one week before experiments. Animals were randomly distributed into 4 groups (n=5 in each group): non-ventilated control mice with normal saline; non-ventilated control mice treated with the eNOS decoy peptide (d-peptide); high tidal volume with normal saline; high tidal volume with eNOS decoy peptide. Three hours before ventilation, saline or the eNOS decoy peptide (10 mg/kg body weight) were injected intraperitoneally. Before mechanical ventilation was initiated, mice were anesthetized using an intraperitoneal injection with a cocktail containing ketamine (100 mg/kg) and xylazine (5 mg/kg). The mice were then placed in a supine position on a heating pad to maintain body temperature. For the ventilation procedure, mice were orotracheally intubated with a 20 g intravenous indwelling catheter and attached to a small animal ventilator (SAR-1000, CWE Inc., USA). The ventilation parameters were set as follows: inspiration/expiration ratio, 33%; respiratory rate, 75 breaths/min; and tidal volume, 35 mL/kg (high tidal volume group). During mechanical ventilation, mice were maintained in deep anesthesia by injecting with ketamine (100 mg/kg) every 45 minutes for the duration of the 4 h study. Mice in the non-ventilated control group were allowed to spontaneously breathe. […] The pellets were then resuspended in 500 μl of PBS and the cell numbers present were determined using an automated cell counter. The BAL fluid was centrifuged again at 15,000× g at 4° C. for 15 min and the supernatant collected and stored at −80° C. until the protein concentration was measured. […]
Protein extracts were prepared using lysis buffer (50 mM Tris-HCl, pH 7.6, 0.5% Triton X-100, 20% glycerol) containing HALT™ protease inhibitor cocktail (Pierce Laboratories, Rockford, IL). […] Bands were quantified using LI-COR Image Station software. […]

Row | Compound | mitochondrial ROS levels (MitoSOX red fluorescence) (PAEC [1]) | maximum respiratory capacity (PAEC [2]) | mitochondrial basal O2 consumption (PAEC [2]) | spare respiratory capacity (PAEC [2]) | BALF cell number (mouse model of VILI) | BALF protein levels (mouse model of VILI) | increase in pT495-eNOS induced by mechanical ventilation of the mouse lung (mouse model of VILI)
1 | CCCCCCCCCC(=O)O[C@@H]1[C@@H](C)[C@@]2(O)[C@@H](C=C(CO)C[C@@]3(O)C(=O)C(C)=C[C@@H]23)[C@@H]2C(C)(C)[C@]12OC(=O)CCCCCCCCC [4αPDD, 4α-Phorbol-12,13 didecanoate] | increases in mitochondrial ROS levels | reductions | reductions | reductions | – | – | –
2 | HRKKRRQRRITRKKTFKEVA [d-peptide] | – | – | – | – | decreases in the cell number | decreases | attenuated the increase in pT495-eNOS induced by mechanical ventilation
